Square brackets hold non-standard residues; d marks the D form. Peptide text beside a SMILES is read from it. Sar = CNCC(=O)O

Data on nine compounds can be found in patent US10005818B2, “Derivative peptide compounds and methods of use” (REALTA HOLDINGS, LLC, priority 2010, dated 2018).

Series [1] is described as follows: Solubility in water. The format is physicochemical.
Series [2] deals with complement activation in factor B-depleted human sera. In kind it is biochemical. The procedure, abridged: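 Peptides at 0.77 mM final in factor B-depleted human serum, or serially diluted in it, incubated 1 h at 37 °C. Then diluted into GVBS++ with sensitized sheep RBCs for 1 h at 37 °C, with hemolysis read at 412 nm. Percent lysis relative to serum-only control, soluble peptides normalized to water and insoluble ones to DMSO, triplicate means.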

For series [3], the system named is acute kidney injury. Kind of series: Acute kidney injury after xenotransfusion in AIHTR rat model (IVIG vs PIC1). In kind it is in vivo. Particulars: prophylaxis 40 mg/animal. Here is the method: For both experiments, animals allotted to the saline control group received NS prior to huRBC transfusion whereas the CVF group received 130 μg CVF (Complement Technologies, Inc.) intra-peritoneum (I.P.) 24 hours prior to the huRBC transfusion.
Using weight-based doses of ketamine and acepromazine, animals were sedated throughout the course of the experiment with periodic monitoring of vital signs. Blood samples were collected into EDTA microtainer tubes (BD) from the animals prior to the huRBC transfusion and then at 30 seconds, 5 minutes, 20 minutes, 60 minutes and 120 minutes after the huRBC transfusion. […] These samples were kept shaking at room temperature prior to processing and centrifuged at 2655×g for five minutes to separate out the plasma and sediment the RBCs. Plasma was aliquoted and the RBC pellet was processed separately as described below. Upon completion of the final (120 minutes or 360 minutes) blood draw, the animal was euthanized using Fatal Plus (Vortech). A necropsy was completed to collect organs (liver, spleen and bilateral kidney) for histopathology. […] Hematoxylin and eosin (H&E) stained sections were reviewed by a blinded pathologist.
To ascertain if the intravascular toxic free Hb would cause acute kidney injury, the animals were monitored for 6 hours post-transfusion.

[4] abbreviates: Table 5, sarcosine substitution peptides.
The mark [5] stands for this setting: Table 7, PEGylated and sarcosine/alanine substitution peptides.

On to `CC[C@H](C)[C@H](N)C(=O)N[C@@H](C)C(=O)N[C@@H](CC(C)C)C(=O)N[C@H](C(=O)N[C@@H](CC(C)C)C(=O)N[C@@H](CCC(=O)O)C(=O)N1CCC[C@H]1C(=O)N[C@H](C(=O)N(C)CC(=O)N[C@@H](CS)C(=O)N[C@@H](CCC(N)=O)C(=O)N[C@@H](CCC(=O)O)C(=O)N[C@@H](CCCNC(=N)N)C(=O)N[C@@H](C)C(=O)N[C@@H](C)C(=O)O)[C@@H](C)CC)[C@@H](C)CC` [PA-C9Sar] (H-IALILEPI[Sar]CQERAA-OH; N-terminus and C-terminus assumed), for which the “solubility in water / aqueous solutions” value in series [1] was “water soluble”. Further, the Solubility in water entry in series [1] (setting [4]) is “Yes”. For the same compound, the “Hemolysis (%)” value in series [2] was 5.63%.

With Immune globulin intravenous [IVIG], in series [3], the “gross appearance of kidneys at necropsy” value was “looked darker and enlarged”; the kidney weight entry is on record as “significant increase in weight compared to animals receiving PIC1”. In addition, in series [3] (6 hours post-transfusion), the “gross hematuria / urine appearance” value is given as “two of the three animals”. Moreover, in series [3] (H&E), the kidney histopathology result was “early acute tubular necrosis”.

`CC[C@H](C)[C@H](N)C(=O)N(C)CC(=O)N[C@@H](CC(C)C)C(=O)N[C@H](C(=O)N[C@@H](CC(C)C)C(=O)N[C@@H](CCC(=O)O)C(=O)N1CCC[C@H]1C(=O)N[C@H](C(=O)N[C@@H](CS)C(=O)N[C@@H](CS)C(=O)N[C@@H](CCC(N)=O)C(=O)N[C@@H](CCC(=O)O)C(=O)N[C@@H](CCCNC(=N)N)C(=O)N[C@@H](C)C(=O)N[C@@H](C)C(=O)O)[C@@H](C)CC)[C@@H](C)CC` [PA-A2Sar] (H-I[Sar]LILEPICCQERAA-OH; N-terminus and C-terminus assumed): the Solubility in water result in series [1] (setting [4]) is “Yes”. Also, in series [2], the “Hemolysis (%)” value is recorded as 37.72%.

For `CC[C@H](C)[C@H](N)C(=O)N[C@@H](C)C(=O)N[C@@H](CC(C)C)C(=O)N[C@H](C(=O)N[C@@H](CC(C)C)C(=O)N[C@@H](CCC(=O)O)C(=O)N1CCC[C@H]1C(=O)N[C@H](C(=O)N[C@@H](CS)C(=O)N[C@@H](CS)C(=O)N[C@@H](CCC(N)=O)C(=O)N[C@@H](CCC(=O)O)C(=O)N(C)CC(=O)N[C@@H](C)C(=O)N[C@@H](C)C(=O)NCCOCCOCCOCCOCCOCCOCCOCCOCCOCCOCCOCCOCCOCCOCCOCCOCCOCCOCCOCCOCCOCCOCCOCCOCCC(=O)O)[C@@H](C)CC)[C@@H](C)CC` [PA-R13Sar-dPEG24], the Solubility in water result in series [1] (setting [5]) is reported as “Yes”. Also, the “Hemolysis (%)” value in series [2] is reported as 4.26%.

As for `CC[C@H](C)[C@H](N)C(=O)N[C@@H](C)C(=O)N[C@@H](CC(C)C)C(=O)N[C@H](C(=O)N[C@@H](CC(C)C)C(=O)N[C@@H](CCC(=O)O)C(=O)N(C)CC(=O)N[C@H](C(=O)N[C@@H](CS)C(=O)N[C@@H](CS)C(=O)N[C@@H](CCC(N)=O)C(=O)N[C@@H](CCC(=O)O)C(=O)N[C@@H](CCCNC(=N)N)C(=O)N(C)CC(=O)N[C@@H](C)C(=O)O)[C@@H](C)CC)[C@@H](C)CC` [Peptide A14SarP7Sar, IALILE(Sar)ICCQER(Sar)A] (H-IALILE[Sar]ICCQER[Sar]A-OH; N-terminus and C-terminus assumed), the Solubility in water result in series [1] (setting [5]) is on record as “Yes”. Further, the “Hemolysis (%)” value in series [2] is listed as 4.37%.

With `CC[C@H](C)[C@H](N)C(=O)N[C@@H](C)C(=O)N[C@@H](CC(C)C)C(=O)N[C@H](C(=O)N[C@@H](CC(C)C)C(=O)N[C@@H](CCC(=O)O)C(=O)N1CCC[C@H]1C(=O)N(C)CC(=O)N[C@@H](CS)C(=O)N[C@@H](CS)C(=O)N[C@@H](CCC(N)=O)C(=O)N[C@@H](CCC(=O)O)C(=O)N[C@@H](CCCNC(=N)N)C(=O)N[C@@H](C)C(=O)N[C@@H](C)C(=O)O)[C@@H](C)CC` [PA-I8Sar, IALILEP(Sar)CCQERAA], in series [1] (setting [4]), the Solubility in water entry is on record as “Yes”. The “Hemolysis (%)” value in series [2] came to 33.92%.

As for `CC[C@H](C)[C@H](N)C(=O)N[C@@H](C)C(=O)N[C@@H](CC(C)C)C(=O)N[C@H](C(=O)N[C@@H](CC(C)C)C(=O)N(C)CC(=O)N(C)CC(=O)N[C@H](C(=O)N[C@@H](CS)C(=O)N[C@@H](CS)C(=O)N[C@@H](CCC(N)=O)C(=O)N[C@@H](CCC(=O)O)C(=O)N[C@@H](CCCNC(=N)N)C(=O)N[C@@H](C)C(=O)N[C@@H](C)C(=O)O)[C@@H](C)CC)[C@@H](C)CC` [Peptide E6SarP7Sar] (H-IALIL[Sar][Sar]ICCQERAA-OH; N-terminus and C-terminus assumed), the Solubility in water result in series [1] (setting [5]) is “Yes”. In addition, the “Hemolysis (%)” value in series [2] worked out at 3.57%.

In the case of `CC[C@H](C)[C@H](N)C(=O)N[C@@H](C)C(=O)N[C@@H](CC(C)C)C(=O)N[C@H](C(=O)N[C@@H](CC(C)C)C(=O)N[C@@H](CCC(=O)O)C(=O)N(C)CC(=O)N[C@H](C(=O)N[C@@H](CS)C(=O)N[C@@H](CS)C(=O)N[C@@H](CCC(N)=O)C(=O)N[C@@H](CCC(=O)O)C(=O)N[C@@H](CCCNC(=N)N)C(=O)N[C@@H](C)C(=O)N[C@@H](C)C(=O)O)[C@@H](C)CC)[C@@H](C)CC` [PA-P7Sar] (H-IALILE[Sar]ICCQERAA-OH; N-terminus and C-terminus assumed), in series [1], the “solubility in water / aqueous solutions” value was “water soluble”. Moreover, in series [1] (setting [4]), the Solubility in water result is listed as “Yes”. Also, the “Hemolysis (%)” value in series [2] was found to be 3.01%.

As for `CC[C@H](C)[C@H](N)C(=O)N[C@@H](C)C(=O)N[C@@H](CC(C)C)C(=O)N[C@H](C(=O)N[C@@H](CC(C)C)C(=O)N[C@@H](CCC(=O)O)C(=O)N1CCC[C@H]1C(=O)N[C@H](C(=O)N[C@@H](CS)C(=O)N[C@@H](CS)C(=O)N[C@@H](CCC(N)=O)C(=O)N[C@@H](CCC(=O)O)C(=O)N[C@@H](CCCNC(=N)N)C(=O)N(C)CC(=O)N[C@@H](C)C(=O)O)[C@@H](C)CC)[C@@H](C)CC` [PA-A14Sar], the Solubility in water entry in series [1] (setting [4]) is “No”. The “Hemolysis (%)” value in series [2] came to 3.88%.
